In experiment [1] the test system is carrageenan and kaolin induced monoarthritis. The experiment can be described thus: Carrageenan and kaolin induced monoarthritis model (incapacitance test). The class given is in vivo, rats. The conditions noted are these: 10 mg/kg p.o. As to the method: The Incapacitance tester is an apparatus for measure the changes of the functional parameters induced of the pain, which can register the bearing on the hind limb, the amount of the moving and the changing of the centre of gravity. Knee-joint of the right-back limb was treated with solution of 100 μl 2% carrageenan and kaolin. During 3-4 hours after the treatment arthritis was emerged in the capsular ligament of the treated limb. This inflammation still exists at 24 hours after the treatment. Because of the pain the animals coddles the treated limbs, thy weign on it less. Change of weight load is measurable with Incapacitance tester device in grams. The incapacitance was calculated as follows: [formula] Analgesic-antiinflammantory compounds could increase the stimulus threshold of the knee-joint, and consequently to improve the functional parameters of the limb. Measure of this can be counted by the decrease of the loading of left leg i.e. in terms of percentage of reversal. [formula] The Incapacitance induced by administration of irritants in left paw was measured at 4 hour after the injection. Afterwards the animals (n=24-32/group) were. orally treated with dose of 10 mg/kg valdecoxib and test compounds. Measurements were done at 1 and 2 hours after the treatments.

The next experiment has as its system isolated rabbit heart. Briefly: Cardiac effects on the isolated rabbit heart (Langendorff, coronary flow). Also on record: species or system New Zealand white rabbits; coronary flow: unit not given here. The conditions noted are these: for coronary flow % changing: versus basic value. As for the experimental part: New Zealand white rabbits weighing 1.5-2 kg were used. The animals were exsanguinated and after thoracotomy the hearts were excised and mounted on a Langendorff-type perfusion apparatus. The hearts were perfused via the aorta with oxigenated, thermostated (37° C.) Krebs solution. A constant perfusion pressure of 80 cmH2O was applied. The test compounds were dissolved in the perfusion solution to obtain the requested concentrations.
The basic value of coronary flow was determined. Afterwards the small amount of compounds were added to perfusion liquid and the perfusion was measured for 30 minutes at every 10 minutes. Afterwards 30 minutes perfusion was performed without compound and the measure was repeated with the medium and high amount of compounds.
The effects of same concentration of valdecoxib and compound of example 1 were investigated in 4-4 hearts (1, 3 and 10 μM). Valdecoxib had no effect in either concentration. It can clearly be shown that the coronary flow was increased dose dependently. This effect is advantageous in practice of clinical therapy, because the painful arthritic and degenerative joint and bone deformations are emerged rather in old age, when diseases of the vascular system are also frequently encountered, which can conduce to disorder of vascular bed of the heart.

For the next experiment, the target named is T1, sheep COX-1 (Ovis aries, UniProt P05979).
T1 construct: purchased Cayman Chemical, Ann Arbor, USA 60100
T1 sequence (P05979 25-600): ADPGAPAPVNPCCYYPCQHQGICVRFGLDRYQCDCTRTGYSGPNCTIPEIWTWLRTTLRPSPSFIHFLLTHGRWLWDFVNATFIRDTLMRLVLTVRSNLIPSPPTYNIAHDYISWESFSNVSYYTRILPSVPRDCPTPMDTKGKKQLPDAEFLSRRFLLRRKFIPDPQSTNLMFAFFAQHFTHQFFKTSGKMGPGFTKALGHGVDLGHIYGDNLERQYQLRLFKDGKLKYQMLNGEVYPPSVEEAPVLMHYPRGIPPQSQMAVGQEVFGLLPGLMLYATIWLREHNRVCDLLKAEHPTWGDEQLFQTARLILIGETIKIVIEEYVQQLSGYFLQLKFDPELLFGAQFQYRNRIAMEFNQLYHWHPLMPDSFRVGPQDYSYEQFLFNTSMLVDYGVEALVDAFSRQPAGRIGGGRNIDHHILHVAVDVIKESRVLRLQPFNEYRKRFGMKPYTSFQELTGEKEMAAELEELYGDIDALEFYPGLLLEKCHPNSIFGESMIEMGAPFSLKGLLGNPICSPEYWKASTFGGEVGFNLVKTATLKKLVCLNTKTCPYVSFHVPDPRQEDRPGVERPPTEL
The experiment can be described thus: spectrophotometric TMPD assay, COX-1. Type of experiment: biochemical. The conditions noted are these: 15 min preincubation at 25° C., read-out: Sheep COX-1 IC50 (μM) ± S.E.M. As to the method:
The Human recombinant COX-2 and sheep COX-1 activity were determined by spectrophotometric TMPD assay (K. Gierse, S. D. Hauser, D. P. Creely, C. M. Koboldt, S. H. Rangwala, P. C. Isakson and K. Seibert: Expression and selective inhibition of the constitutive and inducible forms of human cyclo-oxygenase Biochem. J. 305: 479-484 (1995)).
The Human recombinant COX-2 and sheep COX-1 activity were measured by spectrophotometric assay based on oxidation of N,N,N′,N′,-tetramethyl-p-phenylenediamine (TMPD). During the reduction of the prostaglandine G2 (PGG2) to prostaglandine endoperoxid H2 (PGH2), the TMPD is being oxidated to a colour product, which can be measured by spectrophotometer at 610 nm.
4 μl of solution of inhibitors in different concentrations was added to the 156 μl of reaction mixture (100 mM sodium phosphate buffer, pH:6.5, 1 μM hematin, 1 mg/ml gelatine). Afterwards 20 μl solution of 50 unit human recombinant COX-2 enzym or 20 μl of 50 unit sheep COX-1 enzym (Cayman Chemical, Ann Arbor, USA, cat no.: 60122/COX-2/, cat. no.: 60100/COX-1/) was added. The incubation mixture: was preincubated for 15 minutes at 25° C. in a spectrophotometric 96-well plate reader (Labsystem iEMS Reader MF). Following this, the mixture of 20 μl 1 mM arachidonic acid and 1 mM TMPD solution were added. It was shaken for 10 second and the absorbance was measured at 610 nm.

What is called IC50 is the midpoint of a concentration-inhibition curve. On to “N-hydroxi-4-(3-phenyl-5-methyl-isoxazole-4-yl)-benzenesulfonamide monohydrate [example 1]”, for which the “Analgesic effect (% reversal) after p.o. treatment” value in experiment [1] (1 hour) was determined as 63.2 % reversal; in experiment [1] (2 hours) it was 76.9 % reversal. For the same substance, the coronary flow is recorded as 40.0 ± 3.3 in the experiment with isolated rabbit heart (1 μM, 10 minutes of treatment); 39.0 ± 3.0 in the experiment with isolated rabbit heart (1 μM, 20 minutes of treatment); 37.5 ± 2.4 in the experiment with isolated rabbit heart (1 μM, 30 minutes of treatment); 37.3 ± 2.3 with isolated rabbit heart (3 μM, 10 minutes of treatment); 37.5 ± 1.7 in the experiment with isolated rabbit heart (3 μM, 20 minutes of treatment); 38.8 ± 1.3 with isolated rabbit heart (3 μM, 30 minutes of treatment). Moreover, the coronary flow amounted to 45.8 ± 2.5 in the experiment with isolated rabbit heart (10 μM, 10 minutes of treatment); 48.3 ± 4.8 in the experiment on isolated rabbit heart (10 μM, 20 minutes of treatment); 49.0 ± 4.8 in the experiment with isolated rabbit heart (10 μM, 30 minutes of treatment). Also, the “coronary flow % changing” value is listed as 16.6% with isolated rabbit heart (1 μM, 10 minutes); 13.7% with isolated rabbit heart (1 μM, 20 minutes); 9.3% in the experiment on isolated rabbit heart (1 μM, 30 minutes); 24.3% in the experiment with isolated rabbit heart (3 μM, 10 minutes); 25.0% with isolated rabbit heart (3 μM, 20 minutes); 26.0% in the experiment with isolated rabbit heart (3 μM, 30 minutes). Also, the “coronary flow % changing” value in the experiment on isolated rabbit heart (10 μM, 10 minutes) is on record as 63.6%; in the experiment with isolated rabbit heart (10 μM, 20 minutes), 72.5%; with isolated rabbit heart (10 μM, 30 minutes), 75.0%. Also, the “effect on coronary flow (in words)” value in the experiment on isolated rabbit heart (1, 3 and 10 μM, 4-4 hearts) is on record as “positive effect”. In addition, on sheep COX-1, the 50% inhibitory concentration (IC50) turned out to be 101 ± 12.5 µM.

The values above are taken from US20070093539A1, “N-hydroxy-4-(3-pheyl-5-methyl-isoxazole-4-yl)-benzenesulfonate solvates” (priority 2003, published 2007).
